Reference: PubChem BioAssay AID743417 (Broad Institute, 2014)
Results filed as inconclusive are left out. The source made the active and inactive calls.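 How the source made its calls: active means compounds lowering the luciferase signal with a fitted half-maximal dose at most twice their top valid dose (cut at about 30 µM in these data); inconclusive means flat fits with moderate signal loss, or poor fits; inactive means the rest.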

System: Clone20 osteoblast Shn3 3'UTR firefly luciferase, 24 h
Assay: Shn3 3'UTR reporter inhibitors, dose response, cell-based, Clone20 osteoblasts, luminescence, dry powder, set 2 (AID 743417)

Row | SMILES | AC50
1 | O=C(c1nnsc1S(=O)(=O)c1ccc(Cl)cc1)N1CCOCC1 | 7.74 µM
2 | O=C(Nc1ccc(Cl)cc1)/C(=C/c1cccc(O)c1)c1nc2ccccc2s1 | 3.53 µM
3 | COc1cccc(CNc2nc(NCC3CC3)nc3ccsc23)c1 | 5.86 µM
4 | CC1=CC2/C=C(\C)CCC(O)C(O)/C=C/C(=O)C23C(=O)NC(CC(C)C)C3C1C (centres undefined) | 5.29 µM
5 | Cc1cccc(C(=O)Nc2ccc(C(=O)/C=C/c3ccncc3)cc2)c1 | 3.41 µM
6 | CCOC(=O)c1cnc(-n2nc(C)cc2C)nc1NC1CCCC1 | 4.4 µM
7 | COc1cc(OC)c(OC)cc1/C=C1\CC(C)C/C(=C\c2cc(OC)c(OC)cc2OC)C1=O (centres undefined) | 3.22 µM
8 | CC(C)(C)c1nc(NCCN2CCOCC2)c2nnn(Cc3ccccc3Cl)c2n1 | 8.85 µM
9 | COc1ccc(NC(=O)CSc2ncccc2C(=O)OC(C)C)cc1OC | 4.1 µM
10 | O=C(/C=C/c1ccc(F)cc1)NC(=S)NNC(=O)c1cnccn1 | 1.39 µM
11 | CN(c1ccccc1)S(=O)(=O)c1cccc(NC(=O)CSc2nncs2)c1 | 1.44 µM
12 | C=C1C(=O)[C@]23C[C@H]1CCC2[C@]1(C)CCC[C@@](C)(C(=O)O)C1C[C@@H]3O (some centres undefined) | 1.2 µM
13 | Cc1ccc(NC(=O)C2CCC(C(C)(C)C)CC2)cc1S(=O)(=O)N1CCOCC1 (centres undefined) | 12.1 µM
14 | O=C1NC2C(=CC(O)C(O)C2O)c2cc3c(cc21)OCO3 (centres undefined) | 2.22 µM
15 | COc1ccc(NS(=O)(=O)c2ccc(C(=O)N3CCCCCC3)cc2)cc1 | 4.51 µM
16 | CC(C)(C)[C@@H]1COC(=O)[C@@H](NC(=O)OCC2c3ccccc3-c3ccccc32)C/C=C\C[C@@H](CC(=O)NCCO)C(=O)N1 | 22.1 µM
17 | Oc1c(CN2CCN(c3ccc(F)cc3)CC2)cc(Cl)c2cccnc12 | 1.32 µM
18 | O=C(C1=C[C@@H](C2CC2)C[C@@H](OCCCCO)O1)N1CCN(Cc2ccccc2)CC1 | > 70 µM (inactive)
19 | C=C1CC2(CC(c3ccccc3)OC(c3ccccc3)C2)OC1=O (centres undefined) | 2.49 µM
20 | CCOc1cc(/C=C\[N+](=O)[O-])ccc1OCC(=O)Nc1ccccc1C | < 0.26 µM
21 | CC(C)c1ccc(NC(=O)Nc2nc(C(N)c3ccccc3)cs2)cc1 (centres undefined) | 2.48 µM
22 | CCOc1ccc(S(=O)(=O)N(C)c2ccc(OCC(=O)Nc3nc4ccccc4s3)cc2)cc1 | 2.82 µM
23 | O=C1C=C(N2CCOCC2)c2ccccc2C1=O | 7.16 µM
24 | CN(C)CC(C(=O)c1ccccc1)c1ccccc1 (centres undefined) | 2.8 µM
25 | CC[n+]1c(/C=C/Nc2ccccc2)sc2ccccc21 | 2.06 µM
26 | COc1cc(SC)ccc1C(=O)Nc1nc(C)cs1 | 7.09 µM
27 | COc1ccccc1OCC(=O)c1[nH]c(C)c(C(C)=O)c1C | 3.35 µM

Row | SMILES | AC50
28 | CC(C)(O)/C=C/C(=O)C(C)(O)C1C(O)CC2(C)C3CC=C4C(C=C(O)C(=O)C4(C)C)C3(C)C(=O)CC12C (centres undefined) | 1.83 µM
29 | Oc1c(CN2CCCCC2)ccc2cccnc12 | 2.11 µM
30 | CC(C)C[C@@H](CO)N(Cc1ccccc1)S(=O)(=O)N(Cc1ccccc1)[C@@H](CO)CC(C)C | 11.4 µM
31 | CC(=O)Nc1ccc(NC(=O)c2nc(S(=O)(=O)Cc3cccc(C)c3)ncc2Cl)cc1 | 0.528 µM
32 | Oc1c(CN2CCOCC2)cc(COCc2ccccc2)c2cccnc12 | 1.28 µM
33 | COCCn1c(C)cc(C2=NNC(=NC3CC3)SC2)c1C | < 0.26 µM
34 | NS(=O)(=O)c1ccc(CCNCc2cc(Cl)ccc2OCc2ccccc2)cc1 | 4.46 µM
35 | COc1ccc(OC)c(NC(=O)c2cc(-c3cc(F)ccc3OCC3CCCO3)n[nH]2)c1 (centres undefined) | 10.5 µM
36 | COC(=O)/C(=C1/Oc2cc(C)oc(=O)c2S1)C(F)(F)F | 4.64 µM
37 | COc1cc(NS(=O)(=O)c2ccc(C)cc2)c2ncccc2c1 | 3.35 µM
38 | CCC(=O)NC(c1ccc(OC)c(OC)c1)c1cc(Cl)c2cccnc2c1O (centres undefined) | < 0.26 µM
39 | C=CCSc1nc2ccccc2n1C(=O)/C=C/c1cc(OC)c(OC)c(OC)c1 | 1.13 µM
40 | O=C(c1n[nH]c(=O)c2ccccc12)N1CCN(C2c3ccccc3-c3ccccc32)CC1 | 7.69 µM
41 | CC(C)C[C@H]1CN=C(N(C)C)N1CC1CCCCCC1 | 5.03 µM
42 | COc1cc2ncnc(N[C@H](C)c3ccccc3)c2cc1OC | 8.72 µM
43 | CCc1c(C)nc2ncnn2c1N1CCN(S(=O)(=O)c2ccc(OC)cc2)CC1 | 1.16 µM
44 | COc1ccc(Nc2cc(C)nc(NCc3ccccc3)n2)cc1 | 3.9 µM
45 | COc1ccc(CCNc2c(C)c(C)nc3ncnn23)cc1 | 0.565 µM
46 | CCS(=O)(=O)c1ncc(Cl)c(C(=O)Nc2ccccc2OC)n1 | 3.71 µM
47 | Cc1nc(SCC(=O)Nc2nc3ccccc3s2)c(C#N)c(C)c1C | < 0.26 µM
48 | COc1cccc(N2CCN(c3ncnc4c3cnn4-c3ccc(C)cc3C)CC2)c1 | 4.65 µM
49 | CCCCC(=O)NC(c1cccc([N+](=O)[O-])c1)c1ccc2cccnc2c1O (centres undefined) | 1 µM
50 | Cc1ccc(S(=O)(=O)Nc2ccc(O)c3ncccc23)cc1 | 1.55 µM
51 | OCCCNc1nccc(-c2cc(Nc3cccc(Cl)c3)ncn2)n1 | 2.61 µM
52 | O=C(CN1CCCC1c1cccs1)Nc1cc(S(=O)(=O)N2CCCCC2)ccc1Cl (centres undefined) | 14.4 µM
53 | CC(C)(C)c1ccc(C(O)CCCN2CCC(C(O)(c3ccccc3)c3ccccc3)CC2)cc1 (centres undefined) | 16.7 µM
54 | Cc1ccc(NC(=O)c2nc(S(=O)(=O)Cc3ccccc3)ncc2Cl)cc1 | 3.42 µM

Row | SMILES | AC50
55 | CCOC(=O)c1cnc(-n2nc(C)cc2C)nc1NNc1nc(-c2ccccc2)cc(-c2ccccc2)n1 | 3.84 µM
56 | CCCOc1ccc(C(=O)C(CN2CCCC2)c2ccccc2)cc1 (centres undefined) | 4.84 µM
57 | O=C(c1ccccc1)C(CN1CCCCC1)c1ccccc1 (centres undefined) | 2.41 µM
58 | CC(=O)N1c2ccc(S(=O)(=O)N3CCC(C(=O)N4CCN(c5cccc(C(F)(F)F)c5)CC4)CC3)cc2CC1C (centres undefined) | 1.28 µM
59 | O=C(O)c1cccc(COc2ccccc2Cl)c1 | 1.48 µM
60 | CCOC(=O)c1cn(CC(=O)Nc2cccc(Cl)c2C)nn1 | 4.65 µM
61 | CCOc1ccc(CN(C)c2ccc(S(=O)(=O)N3CCN(C)CC3)cc2[N+](=O)[O-])cc1OC | 3.38 µM
62 | O=C(Nc1ccc(Oc2ccccc2)cc1)C1CCN(c2c3c(nc4ncnn24)CCC3)CC1 | 5.64 µM
63 | CCOC(=O)c1c(CSc2ccc(CC)cc2)oc2ccc(O)c(CN(C)C)c12 | 3.05 µM
64 | Cc1ccc(S(=O)(=O)N2CCN(c3ncnc4sccc34)CC2)cc1 | 2.72 µM
65 | O=c1c(Br)c(Br)cnn1-c1ccccc1 | 1.82 µM
66 | COc1ccc(CCNc2ncnc3c2oc2ccccc23)cc1OC | 0.524 µM
67 | COc1ccc(OC)c(C(c2nnnn2Cc2ccccc2)N2CCN(C3CCCCC3)CC2)c1 (centres undefined) | > 70 µM (inactive)
68 | Cc1cc(Br)c(S(=O)(=O)NCc2ccncc2)cc1C | 1.41 µM
69 | COc1ccc(NC(=O)CCOc2cc(C)ccc2C)cc1S(=O)(=O)N1CCCCC1 | 10.4 µM
70 | COc1cc(C)c(NC(=O)COc2cccc3c2OC(C)(C)C3)cc1OC | 7.06 µM
71 | CC(Nc1ncnc2ccccc12)c1ccccc1 (centres undefined) | 0.355 µM
72 | COc1ccc(C)cc1NS(=O)(=O)c1ccc(-c2cnc(C3CC3)o2)cc1 | 3.76 µM
73 | COc1cnc(-c2ccccn2)nc1N(C)c1ccccc1 | 1.83 µM
74 | CC(=O)NC(c1cccs1)c1cc(F)c2cccnc2c1O (centres undefined) | 1.67 µM
75 | CCn1c(C)cc(C(=O)COC(=O)c2ccccc2[N+](=O)[O-])c1C | < 0.26 µM
76 | O=C(OCc1ccccc1)c1ccc(NCc2cc(O)ccc2O)cc1 | 0.711 µM
77 | COc1cc(NC(=O)COc2cccc3c2OC(C)(C)C3)cc(OC)c1OC | 4.38 µM
78 | Cc1nc2ccc(NC(=O)c3cccc(S(=O)(=O)N(C)c4ccccc4)c3)cc2s1 | 7.6 µM
79 | O=C(Nc1cccc(F)c1)c1cc(S(=O)(=O)NCCC2=CCCCC2)ccc1F | 4.16 µM
